Laboratory results: the supplement of paper PMC10307832

Legend:
Assay in all cases: relative viability (nuclei count vs DMSO), 5 days (fraction); higher = more cells survive
[1] = compound: C1COCCN1CC2=CC(=O)C(=CO2)OCCCCCSC3=C4C=CC(=CC4=NC=C3)C(F)(F)F [EHT 1864] + COc1cc2c(Oc3ccc(NC(=O)C4(C(=O)Nc5ccc(F)cc5)CC4)cc3F)ccnc2cc1OCCCN1CCOCC1 [Foretinib] (partner 0.25 µM)
Summary of the method: (§1)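 Lung cancer cell lines, seeded in 1536-well plates, were treated the following day by pin tool with a single drug or with five library-drug doses (not always all listed) in √10 steps on top of a fixed anchor-drug dose. Cells were fixed and nuclei stained in one step after 5 days, and nuclei were counted. Relative viability is the nuclei count for treated wells divided by that for vehicle wells, reported as medians of duplicate plates.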

[2] = compound: C1COCCN1CC2=CC(=O)C(=CO2)OCCCCCSC3=C4C=CC(=CC4=NC=C3)C(F)(F)F [EHT 1864] + COc1cccc2cc(-c3nc([C@H]4CC[C@H](C(=O)O)CC4)n4ncnc(N)c34)[nH]c12 [OSI-027] (partner 0.5 µM)
Summary of the method: as §1

[3] = compound: C1COCCN1CC2=CC(=O)C(=CO2)OCCCCCSC3=C4C=CC(=CC4=NC=C3)C(F)(F)F [EHT 1864] + CC(=O)c1c(C)c2cnc(Nc3ccc(N4CCNCC4)cn3)nc2n(C2CCCC2)c1=O [Palbociclib] (partner 0.5 µM)
Summary of the method: as §1

[4] = compound: C1COCCN1CC2=CC(=O)C(=CO2)OCCCCCSC3=C4C=CC(=CC4=NC=C3)C(F)(F)F [EHT 1864]
Summary of the method: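 Only plates meeting two conditions passed: control CV below 25% and at least one doubling. Lung cancer cell lines, kept overnight at 37 °C in 1536-well plates, were pinned with five library-drug doses (not always all listed) √10 apart on vehicle-anchored plates and grown 5 days without medium change. A one-step fix, permeabilisation and Hoechst stain preceded 4× imaging and MetaXpress nuclear counting. Viability equals treated-well nuclei divided by vehicle-well nuclei, as the median over plates.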

Cell Line | relative viability ([1]; first compound 0.04 µM) | relative viability ([1]; first compound 0.1265 µM) | relative viability ([1]; first compound 0.4 µM) | relative viability ([1]; first compound 1.265 µM) | relative viability ([1]; first compound 4 µM) | relative viability ([2]; first compound 0.04 µM) | relative viability ([2]; first compound 0.1265 µM) | relative viability ([2]; first compound 0.4 µM) | relative viability ([2]; first compound 1.265 µM) | relative viability ([2]; first compound 4 µM) | relative viability ([3]; first compound 0.04 µM) | relative viability ([3]; first compound 0.1265 µM) | relative viability ([3]; first compound 0.4 µM) | relative viability ([3]; first compound 1.265 µM) | relative viability ([3]; first compound 4 µM) | relative viability ([4]; 0.04 µM) | relative viability ([4]; 0.1265 µM) | relative viability ([4]; 0.4 µM) | relative viability ([4]; 1.265 µM) | relative viability ([4]; 4 µM)
NCI-H322M | 0.898 | 0.948 | 0.995 | 0.895 | 1.06 | 0.591 | 0.444 | 0.535 | 0.585 | 0.533 | 0.488 | 0.488 | 0.434 | 0.456 | 0.465 | 0.95 | 0.921 | 0.942 | 1.05 | 0.923
NCI-H358 | 0.689 | 0.613 | 0.848 | 0.637 | 0.621 | 0.842 | 0.745 | 0.863 | 0.799 | 0.685 | 0.14 | 0.117 | 0.133 | 0.135 | 0.124 | 0.888 | 0.834 | 1.06 | 0.939 | 0.933
NCI-H441 | 0.953 | 1.03 | 1 | 0.942 | 0.984 | 0.685 | 0.511 | 0.414 | 0.581 | 0.734 | 0.233 |  | 0.215 | 0.195 | 0.226 | 1.03 | 0.747 | 0.941 | 1.12 | 1.17
NCI-H460 | 1 | 0.921 | 1.01 | 1.01 | 0.853 | 0.678 | 0.576 | 0.649 | 0.621 | 0.552 |  | 0.155 | 0.16 | 0.16 | 0.173 | 1.01 | 0.921 | 0.966 | 0.965 | 0.857
NCI-H520 | 0.56 | 0.734 | 0.736 | 0.697 | 0.744 | 0.266 | 0.25 | 0.247 | 0.24 | 0.224 | 0.227 | 0.212 | 0.258 | 0.225 | 0.231 | 0.885 | 0.889 | 0.889 | 1.04 | 1.02
NCI-H647 | 1.19 | 0.977 | 1.37 | 1.27 | 1.26 | 0.622 | 0.368 | 0.598 | 0.738 | 0.621 | 0.414 | 0.351 | 0.451 | 0.373 | 0.375 | 1.01 | 0.775 | 1.03 | 1.02 | 0.908
NCI-H650 | 0.99 | 0.859 | 0.97 | 1.03 | 0.99 | 0.53 | 0.354 | 0.546 | 0.531 | 0.49 | 0.332 | 0.256 | 0.346 | 0.327 | 0.325 | 0.894 | 0.846 | 0.968 | 1.01 | 1.03
